Read-outs that look alike come from different tables or passages of the source.
What was measured:
[1] = tested on: CD4+ T-cells; experiment: Immunostimulation assay with anti-CD3/28 stimulated T-cells, CD69 expression by flow cytometry; type: cell-based, human
Protocol: (§1) Selection of potent compounds based on structure activity relation (SAR) using human, anti-CD3/28 stimulated T-cells. Enhanced activation of stimulated T-cells is measured by CD69 expression by flowcytometry.
(§2) White blood cell enriched buffy coats were ordered from the Austrian red cross, diluted with PBS to a total volume of 480 ml, 30 ml transferred to 50ml falcons and 11 ml lymphoprep added. Cell suspensions were centrifuged for 20 min at 2200 rpm and the PBMC containing layer transferred, three times washed with PBS and counted.
(§3) 10^7 PBMCs were magnetically labeled with CD4 and CD8 microbeads according to manufacturer's instructions and separated using autoMACS device. For dose response experiments with purified CD4+CD8+ T-cells 80000 cells were seeded per 96-well flat bottom cell culture dish.
(§4) 10 mM compounds of the invention stocks were further diluted using DMSO and equal amounts transferred to T-cell containing 96-wells. Final concentrations tested were: 30 µM, 10 µM, 3 µM, 1 µM, 0.3 µM, 0.1 µM, 0.03 µM, 0.01 µM, 0.003 µM and 0.001 µM.
(§5) For the stimulation assays 80.000 purified CD4+ and CD8+ T-cells were seeded per 96-well and incubated with 1 µg/ml anti-CD3, 1 µg/ml anti-CD28 and compounds of the invention ranging from 0.001 µM to 30 µM. DMSO only wells served as control to determine minimal T-cell activation upon stimulation and CD3/28 coupled Dynabeads were used to determine the maximal activation of T-cells. Cells were cultured for 16 hours in a humidified incubator at 37 °C and 5 % CO2.
(§6) T-cells were stained for surface antigens (anti-CD4 and anti-CD8) and cell activation markers (anti-CD25 and anti-CD69). Additionally, a fixable viability dye was used to stain viable cells. Staining was performed for 15 minutes and cells analyzed using a Fortessa flow cytometer and FlowJo Software. EC50s were calculated using GraphPad Prism® and a variable slope model (agonist vs. response - variable slope).

[2] = tested on: CD8+ T-cells; experiment: as above; type: cell-based, human
Protocol: as §1, §2, §3, §4, §5, §6

[3] = T-cell, purified human CD4+ and CD8+ T-cells, 1 µg/ml anti-CD3, 1 µg/ml anti-CD28, 16 hours, surface FACS, read-out: EC50 CD4+
[4] = T-cell, purified human CD4+ and CD8+ T-cells, 1 µg/ml anti-CD3, 1 µg/ml anti-CD28, 16 hours, surface FACS, read-out: EC50 CD8+

Row | SMILES | EC50 [1, 3] | EC50 [2, 4] | EC50 ([1]; 16 h) | EC50 ([2]; 16 h)
1 | COc1cc(-c2nc3c(c(=O)[nH]c(=O)n3CC(C)O)n2C)ccc1OCc1ccccc1 (centres unmarked) [Compound 16, 8-(4-(benzyloxy)-3-methoxyphenyl)-3-(2-hydroxypropyl)-7-methyl-3,7-dihydro-1H-purine-2,6-dione] | 500 to 1000 nM | 1000 to 5000 nM |  | 
2 | Cn1c(-c2ccc(OCc3ccc(C(F)F)cc3)c(F)c2)nc2c1c(=O)[nH]c(=O)n2CC(O)C(F)(F)F (centres unmarked) [Compound 18] |  |  | > 5000 nM | 1000 to 5000 nM
3 | COc1cc(-c2nc3c(c(=O)[nH]c(=O)n3CC(O)C(F)F)n2C)ccc1OCc1ccc(C)cc1 (centres unmarked) [Compound 19, 3-(3,3-difluoro-2-hydroxypropyl)-8-(3-methoxy-4-((4-methylbenzyl)oxy)phenyl)-7-methyl-3,7-dihydro-1H-purine-2,6-dione] | 500 to 1000 nM | < 100 nM |  | 
4 | COc1cc(-c2nc3c(c(=O)[nH]c(=O)n3CC(C)(C)O)n2C)ccc1OCc1ccccc1 [Compound 52, 8-(4-(benzyloxy)-3-methoxyphenyl)-3-(2-hydroxy-2-methylpropyl)-7-methyl-3,7-dihydro-1H-purine-2,6-dione] | 1000 to 5000 nM | > 5000 nM |  | 
5 | COc1cc(-c2nc3c(c(=O)[nH]c(=O)n3C[C@H](O)C(F)F)n2C)ccc1OCc1ccccc1 [Compound 53, (S)-8-(4-(benzyloxy)-3-methoxyphenyl)-3-(3,3-difluoro-2-hydroxypropyl)-7-methyl-3,7-dihydro-1H-purine-2,6-dione] | < 100 nM | < 100 nM |  | 
6 | COCC(O)Cn1c(=O)[nH]c(=O)c2c1nc(-c1ccc(OCc3ccccc3)c(OC)c1)n2C (centres unmarked) [Compound 54, 8-(4-(benzyloxy)-3-methoxyphenyl)-3-(2-hydroxy-3-methoxypropyl)-7-methyl-3,7-dihydro-1H-purine-2,6-dione] | 1000 to 5000 nM | 1000 to 5000 nM |  | 
7 | COc1cc(-c2nc3c(c(=O)[nH]c(=O)n3CC(O)CO)n2C)ccc1OCc1ccccc1 (centres unmarked) [Compound 55, 8-(4-(benzyloxy)-3-methoxyphenyl)-3-(2,3-dihydroxypropyl)-7-methyl-3,7-dihydro-1H-purine-2,6-dione] | 1000 to 5000 nM | 1000 to 5000 nM |  | 
8 | COc1cc(-c2nc3c(c(=O)[nH]c(=O)n3CC(C)CO)n2C)ccc1OCc1ccccc1 (centres unmarked) [Compound 56, 8-(4-(benzyloxy)-3-methoxyphenyl)-3-(3-hydroxy-2-methylpropyl)-7-methyl-3,7-dihydro-1H-purine-2,6-dione] | 100 to 500 nM | 100 to 500 nM |  | 
9 | COc1cc(-c2nc3c(c(=O)[nH]c(=O)n3CC(O)C(F)(F)F)n2C)ccc1OCc1ccccc1 (centres unmarked) [Compound 57, 8-(4-(benzyloxy)-3-methoxyphenyl)-7-methyl-3-(3,3,3-trifluoro-2-hydroxypropyl)-3,7-dihydro-1H-purine-2,6-dione] | 500 to 1000 nM | 1000 to 5000 nM |  | 
10 | COc1cc(-c2nc3c(c(=O)[nH]c(=O)n3CC(O)CF)n2C)ccc1OCc1ccccc1 (centres unmarked) [Compound 58, 8-(4-(benzyloxy)-3-methoxyphenyl)-3-(3-fluoro-2-hydroxypropyl)-7-methyl-3,7-dihydro-1H-purine-2,6-dione] | 500 to 1000 nM | 100 to 500 nM |  | 
11 | CCC(O)Cn1c(=O)[nH]c(=O)c2c1nc(-c1ccc(OCc3ccccc3)c(OC)c1)n2C (centres unmarked) [Compound 59, 8-(4-(benzyloxy)-3-methoxyphenyl)-3-(2-hydroxybutyl)-7-methyl-3,7-dihydro-1H-purine-2,6-dione] | 1000 to 5000 nM | 1000 to 5000 nM |  | 
12 | COc1cc(-c2nc3c(c(=O)[nH]c(=O)n3C[C@@H](C)O)n2C)ccc1OCc1ccccc1 [Compound 60, (R)-8-(4-(benzyloxy)-3-methoxyphenyl)-3-(2-hydroxypropyl)-7-methyl-3,7-dihydro-1H-purine-2,6-dione] | 1000 to 5000 nM | 1000 to 5000 nM |  | 
13 | COc1cc(-c2nc3c(c(=O)[nH]c(=O)n3C[C@H](C)O)n2C)ccc1OCc1ccccc1 [Compound 61, (S)-8-(4-(benzyloxy)-3-methoxyphenyl)-3-(2-hydroxypropyl)-7-methyl-3,7-dihydro-1H-purine-2,6-dione] | 500 to 1000 nM | 500 to 1000 nM |  | 
14 | Cn1c(-c2ccc(OCc3ccc(C(F)F)cc3)c(F)c2)nc2c1c(=O)[nH]c(=O)n2CC(O)C(F)F (centres unmarked) [Compound 62, 3-(3,3-difluoro-2-hydroxypropyl)-8-(4-((4-(difluoromethyl)benzyl)oxy)-3-fluorophenyl)-7-methyl-3,7-dihydro-1H-purine-2,6-dione] | 500 to 1000 nM | 100 to 500 nM |  | 
15 | Cn1c(-c2ccc(OCc3ccc(C(F)F)cc3)c(F)c2)nc2c1c(=O)[nH]c(=O)n2CC(O)CF (centres unmarked) [Compound 63, 8-(4-((4-(difluoromethyl)benzyl)oxy)-3-fluorophenyl)-3-(3-fluoro-2-hydroxypropyl)-7-methyl-3,7-dihydro-1H-purine-2,6-dione] | 100 to 500 nM | 100 to 500 nM |  | 
16 | Cn1c(-c2ccc(OCc3ccc(C(F)F)cc3)c(F)c2)nc2c1c(=O)[nH]c(=O)n2CC(O)C(F)(F)F (centres unmarked) [Compound 64, 8-(4-((4-(difluoromethyl)benzyl)oxy)-3-fluorophenyl)-7-methyl-3-(3,3,3-trifluoro-2-hydroxypropyl)-3,7-dihydro-1H-purine-2,6-dione] | > 5000 nM | 1000 to 5000 nM |  | 
17 | CC(O)Cn1c(=O)[nH]c(=O)c2c1nc(-c1ccc(OCc3ccc(C(F)F)cc3)c(F)c1)n2C (centres unmarked) [Compound 65, 8-(4-((4-(difluoromethyl)benzyl)oxy)-3-fluorophenyl)-3-(2-hydroxypropyl)-7-methyl-3,7-dihydro-1H-purine-2,6-dione] | 500 to 1000 nM | 100 to 500 nM |  | 
18 | COc1cc(-c2nc3c(c(=O)[nH]c(=O)n3CC(CO)C(F)F)n2C)ccc1OCc1ccc(C(F)F)cc1 (centres unmarked) [Compound 66, 3-(3,3-difluoro-2-(hydroxymethyl)propyl)-8-(4-((4-(difluoromethyl)benzyl)oxy)-3-methoxyphenyl)-7-methyl-3,7-dihydro-1H-purine-2,6-dione] | < 100 nM | < 100 nM |  | 
19 | Cc1ccc(COc2ccc(-c3nc4c(c(=O)[nH]c(=O)n4CC(CO)C(F)F)n3C)cc2F)cc1 (centres unmarked) [Compound 67, 3-(3,3-difluoro-2-(hydroxymethyl)propyl)-8-(3-fluoro-4-((4-methylbenzyl)oxy)phenyl)-7-methyl-3,7-dihydro-1H-purine-2,6-dione] | < 100 nM | 100 to 500 nM |  | 
20 | COc1cc(-c2nc3c(c(=O)[nH]c(=O)n3CC(O)C(F)F)n2C)ccc1OCc1ccccc1 (centres unmarked) [Compound 68, 8-(4-(benzyloxy)-3-methoxyphenyl)-3-(3,3-difluoro-2-hydroxypropyl)-7-methyl-3,7-dihydro-1H-purine-2,6-dione] | 100 to 500 nM | 100 to 500 nM |  | 
21 | COc1cc(-c2nc3c(c(=O)[nH]c(=O)n3CC(O)CO)n2C)ccc1OCc1ccc(C(F)F)cc1 (centres unmarked) [Compound 72, 8-(4-((4-(difluoromethyl)benzyl)oxy)-3-methoxyphenyl)-3-(2,3-dihydroxypropyl)-7-methyl-3,7-dihydro-1H-purine-2,6-dione] | 1000 to 5000 nM | 1000 to 5000 nM |  | 
22 | COc1cc(-c2nc3c(c(=O)[nH]c(=O)n3CC(O)CF)n2C)ccc1OCc1ccc(C(F)F)cc1 (centres unmarked) [Compound 73, 8-(4-((4-(difluoromethyl)benzyl)oxy)-3-methoxyphenyl)-3-(3-fluoro-2-hydroxypropyl)-7-methyl-3,7-dihydro-1H-purine-2,6-dione] | 500 to 1000 nM | 500 to 1000 nM |  | 

Source: patent EP4389749A1, “SUBSTITUTED 3,7-DIHYDRO-1H-PURINE-2,6-DIONES AND USE THEREOF” (invIOs GmbH, priority 2022, dated 2024)
